Measurements as given in the supplement of paper PMC13380429.

What was measured:
U2OS [1] = assay: cell viability relative to DMSO; higher = less toxic; conditions: 72 h
Vero E6 [2] = assay: as above; conditions: 72 h
Calu-3 [3] = assay: as above; conditions: 72 h
HepG2 [4] = assay: as above; conditions: 72 h
Caco-2 [5] = assay: as above; conditions: 72 h
[6] = test system: A549-ACE2 infected with SARS-CoV-2; assay: SARS-CoV-2 infection rate relative to DMSO; higher = more infection; conditions: 24 h
A549-ACE2 [7] = assay: drug-induced phospholipidosis relative to tamoxifen; higher = more phospholipidosis
[8] = test system: A549-ACE2 infected with SARS-CoV-2; assay: cell count relative to DMSO; higher = less toxic; conditions: 24 h
U2OS [9] = assay: drug sensitivity score (DSS) for viability; higher = more toxic; extreme values may be limits of the assay; conditions: 72 h
Vero E6 [10] = assay: as above; conditions: 72 h
Calu-3 [11] = assay: as above; conditions: 72 h
HepG2 [12] = assay: as above; conditions: 72 h
Caco-2 [13] = assay: as above; conditions: 72 h
A549-ACE2 [14] = assay: phospholipidosis EC50; higher = less potent phospholipidosis inducer
[15] = test system: A549-ACE2 infected with SARS-CoV-2; assay: morphology score (similarity to uninfected cells); higher = more like uninfected cells; conditions: 24 h
Calu-3 [16] = assay: relative viability EC50 (midpoint between 100% and the lowest measured viability); higher = less toxic; conditions: 72 h
HepG2 [17] = assay: as above; conditions: 72 h
U2OS [18] = assay: as above; conditions: 72 h
Vero E6 [19] = assay: as above; conditions: 72 h
Caco-2 [20] = assay: as above; conditions: 72 h

CSc1ccc2c(c1)N(CCC1CCCCN1C)c1ccccc1S2 (centres undefined) [thioridazine]
Conditions	SARS-CoV-2 infection rate [%]	cell count [%]	cell viability [%]	morphology score	phospholipidosis EC50 [µM]
A549-ACE2 [14], 24 h	–	–	–	–	3.21
A549-ACE2 [14], 48 h	–	–	–	–	4.53
A549-ACE2 [14], 72 h	–	–	–	–	5.9
Caco-2 [5], 1 nM	–	–	110	–	–
Caco-2 [5], 10 nM	–	–	100	–	–
Caco-2 [5], 100 nM	–	–	105	–	–
Caco-2 [5], 1000 nM	–	–	105	–	–
Caco-2 [5], 10000 nM	–	–	69.5	–	–
Calu-3 [3], 1 nM	–	–	104	–	–
Calu-3 [3], 10 nM	–	–	110	–	–
Calu-3 [3], 100 nM	–	–	96.8	–	–
Calu-3 [3], 1000 nM	–	–	96.2	–	–
Calu-3 [3], 10000 nM	–	–	31.4	–	–
HepG2 [4], 1 nM	–	–	105	–	–
HepG2 [4], 10 nM	–	–	110	–	–
HepG2 [4], 100 nM	–	–	104	–	–
HepG2 [4], 1000 nM	–	–	102	–	–
HepG2 [4], 10000 nM	–	–	44.5	–	–
U2OS [1], 1 nM	–	–	105	–	–
U2OS [1], 10 nM	–	–	103	–	–
U2OS [1], 100 nM	–	–	102	–	–
U2OS [1], 1000 nM	–	–	103	–	–
U2OS [1], 10000 nM	–	–	74.7	–	–
Vero E6 [2], 1 nM	–	–	106	–	–
Vero E6 [2], 10 nM	–	–	103	–	–
Vero E6 [2], 100 nM	–	–	104	–	–
Vero E6 [2], 1000 nM	–	–	102	–	–
Vero E6 [2], 10000 nM	–	–	69.7	–	–
[6], 0.1 µM	94	–	–	–	–
[6], 0.3 µM	101	–	–	–	–
[6], 1 µM	82	–	–	–	–
[6], 3 µM	21	–	–	–	–
[8], 0.1 µM	–	106	–	–	–
[8], 0.3 µM	–	104	–	–	–
[8], 1 µM	–	110	–	–	–
[8], 3 µM	–	121	–	–	–
[15], 0.1 µM	–	–	–	0.31	–
[15], 0.3 µM	–	–	–	0.1	–
[15], 1 µM	–	–	–	0.34	–
[15], 3 µM	–	–	–	0.84	–

drug-induced phospholipidosis [%], A549-ACE2 [7]
Conditions	0.3 µM	0.833333 µM	3.33333 µM	6.66667 µM	10 µM	30 µM
24 h	14.9	4.83	47.8	79.3	86	44.9
48 h	9.22	4.87	28.5	86.4	99.3	–
72 h	7.14	2.71	20	83.7	117	–

Conditions	drug sensitivity score	relative viability EC50 [µM]
Caco-2 [13]	1.1	–
Calu-3 [11]	4.3	–
Calu-3 [16]	–	2.72
HepG2 [12]	2.8	–
HepG2 [17]	–	3.36
U2OS [9]	0.8	–
Vero E6 [10]	1.2	–

CN(C)c1ccccc1CN1CCCN(Cc2ccccc2N(C)C)C1c1ccncc1 [GANT-61]
Conditions	SARS-CoV-2 infection rate [%]	cell count [%]	cell viability [%]	morphology score	phospholipidosis EC50 [µM]
A549-ACE2 [14], 24 h	–	–	–	–	3.39
A549-ACE2 [14], 48 h	–	–	–	–	4.52
A549-ACE2 [14], 72 h	–	–	–	–	6.2
Caco-2 [5], 1 nM	–	–	94.5	–	–
Caco-2 [5], 10 nM	–	–	99.9	–	–
Caco-2 [5], 100 nM	–	–	92.7	–	–
Caco-2 [5], 1000 nM	–	–	99	–	–
Caco-2 [5], 10000 nM	–	–	95.9	–	–
Calu-3 [3], 1 nM	–	–	111	–	–
Calu-3 [3], 10 nM	–	–	109	–	–
Calu-3 [3], 100 nM	–	–	110	–	–
Calu-3 [3], 1000 nM	–	–	88.2	–	–
Calu-3 [3], 10000 nM	–	–	47.1	–	–
HepG2 [4], 1 nM	–	–	100	–	–
HepG2 [4], 10 nM	–	–	105	–	–
HepG2 [4], 100 nM	–	–	97.5	–	–
HepG2 [4], 1000 nM	–	–	95.3	–	–
HepG2 [4], 10000 nM	–	–	71.1	–	–
U2OS [1], 1 nM	–	–	97.5	–	–
U2OS [1], 10 nM	–	–	94	–	–
U2OS [1], 100 nM	–	–	95.8	–	–
U2OS [1], 1000 nM	–	–	100	–	–
U2OS [1], 10000 nM	–	–	93.5	–	–
Vero E6 [2], 1 nM	–	–	97.7	–	–
Vero E6 [2], 10 nM	–	–	101	–	–
Vero E6 [2], 100 nM	–	–	96	–	–
Vero E6 [2], 1000 nM	–	–	95.6	–	–
Vero E6 [2], 10000 nM	–	–	95	–	–
[6], 0.3 µM	99	–	–	–	–
[6], 3 µM	64	–	–	–	–
[6], 10 µM	33	–	–	–	–
[6], 30 µM	41	–	–	–	–
[8], 0.3 µM	–	95	–	–	–
[8], 3 µM	–	110	–	–	–
[8], 10 µM	–	117	–	–	–
[8], 30 µM	–	109	–	–	–
[15], 0.3 µM	–	–	–	-0.11	–
[15], 3 µM	–	–	–	0.59	–
[15], 10 µM	–	–	–	0.68	–
[15], 30 µM	–	–	–	0.26	–

drug-induced phospholipidosis [%], A549-ACE2 [7]
Conditions	0.3 µM	0.833333 µM	3.33333 µM	6.66667 µM	10 µM	30 µM
24 h	3.13	5.25	60.1	90.1	94.9	116
48 h	6.4	5.75	51.9	94.9	118	135
72 h	6.86	6.64	47	96.1	125	–

Conditions	drug sensitivity score	relative viability EC50 [µM]
Caco-2 [13]	0	–
Caco-2 [20]	–	> 10
Calu-3 [11]	4.7	–
Calu-3 [16]	–	1.65
HepG2 [12]	2	–
U2OS [9]	0	–
U2OS [18]	–	> 10
Vero E6 [10]	0	–
Vero E6 [19]	–	> 10
